Assay results taken from patent publication US20090208597A1, “HEAT PROCESSED VEGETABILIC FIBER PREPARATION AND ITS USE AS INHIBITOR OF THE EFFECTS OF CARCINOGENIC SUBSTANCES IN HUMANS OR ANIMALS” (ESSENTYS AB, priority 2006, published 2009).

Columns and labels:
[1] = test system: BALB mice; experiment: Potato fiber supplemented diet in acryl amide exposed mice, histomorphology of intestine and liver (Example 1); type: in vivo; settings: acryl amide added to the drinking water; 90 days
Experimental: The main aim of these studies was to see if a potato fiber supplemented diet had any effect on acryl amide induced cancer development in mice.
Seventy five 9-weeks old male and seventy five 7 to 9 weeks old female BALB mice (Laboratory), weighing about 20 g, were used. Mice were housed ten per box of the same sex. Solid food and water were allowed in sufficient quantities. The animals were kept in an animal house where the humidity and temperature were controlled and where a 12 h light period was kept. The experiment has been reviewed and approved by Lund University ethic committee, application M140-03.
2/ Labodiet MLF 2% and potato fiber preparation (Povex®). The receipt of this food/feed is based on the control food/feed. The food/feed was enriched with 2% of Povex®.
3/ Labodiet MLF 2% heated potato fiber preparation (Povex®). […]
It was found suitable to use the commercial (Sigma-Aldrich, St Louis, Mo.) acryl amide for electrophoresis in the form of powder (minimum 99%). […] Before the beginning of the experiment, the water consumption during 24 h of 5 groups of mice was measured. […] This consumption was used to calculate the concentration of the two doses of acryl amide: The high dose was calculated from 2 mg/day/kg b.w. and the low dose from 0.1 mg/day/kg b.w. […] The volume left in the bottle was measured and listed in a table in order to follow the consumption of acryl amide through the water. […]

[2] = test system: small intestine of male BALB mice; experiment: Povex in food of mice treated with acrylamide, histomorphometry of small intestine (Example 4); type: in vivo
Experimental: The aim of this study was to investigate if regular and heat Povex can protect small intestine against acrylamide toxic influence. The point was to establish what histological changes can acrylamide cause to small intestine tissue and if Povex can reverse or decrease these possible changes.
Three months experiment was performed on males BALB mince. Two doses of acrylamide (2 mg/day/kg b.w., and 0.1 mg/day/kg b.w.) in drinking water and two types of Povex heated (Treated) and normal (Untreated) added to food were provided for animals.
Histology and histomorphometry of small intestine was performed. The examined parameters were: fractal dimension of small intestine, mitosis inside crypts and apoptosis count per mm^2 of tissue.
Seventy-five 9-weeks old male and seventy-five 7 to 9 weeks old female BALB mice (Laboratory), weighing about 20 g, were used in whole experiment. Mice were housed ten per box of the same sex. This part of experiment and analysis obtained from is made on twenty eight male BALB mice.
Three types of formulated mixtures were manufactured: • Labodiet MLF control. The receipt of this food is based on the energy needs according to the Polish norm for feeding domestic animals. • Labodiet MLF 2% n Povex. The receipt of this food is based one the control one. The food was enriched with 2% of Povex. • Labodiet MLF 2% praz Povex. The receipt of this food is based one the control one. The food was enriched with 2% of heated Povex till 160° C.
Before the beginning of the experiment, we measured water consumption in 24 hours of 5 groups of mice. The average of daily-consumption was 10 mL/day/kg b.w. This consumption was used to calculate the concentration of the two doses of acrylamide: The high dose was calculated from 2 mg/day/kg b.w. and the low dose from 0.1 mg/day/kg b.w. The first dilution of acrylamide in tap water was made directly with the powder and 3 L of both concentrations were prepared. […] The volume left in the bottle was measured and put in a table to follow the consumption of acrylamide through the water. […]

Q: Which results are given for `C=CC(N)=O` [Acryl amide, acryl amide]?
A: histomorphological parameters of the intestine and liver [1]: affected a majority of the measured histomorphological parameters; number of mitosis inside small intestine crypt ([2]; small and large dose of AA with standard food vs control group): significant decrease; number of apoptosis/mm^2 in small intestine tissue ([2]; standard food + large or low dose of AA): elevated number of apoptotic cells; fractal dimension of small intestine mucosa ([2]; standard food and low dose of AA (0.1 mg) vs control group): difference between control group and animals getting standard food and low dose of AA
